Columns and labels:
Format in all cases: in vivo
[1] = tested on: trained panelists (saltiness perception); assay: 2-Alternative Forced Choice human taste test, saltiness in chicken broth (low sodium broth + 100 mM NaCl); settings: for Sample selected as saltier by panelists (Total): 0.1% ethanol, 55° C.; for saltiness of test sample versus control sample: p<0.1
Protocol: Samples of chicken broth were prepared and compared using human taste tests. Control samples contained chicken broth alone. Test samples contained the same chicken broth to which a specific umami compound was added at a specified concentration. To prepare the test sample, a concentrated stock solution of an umami compound was prepared in ethanol. The stock solution was added to a commercially available no-MSG added, low sodium chicken broth (Pacific Organic Free Range Chicken Broth Low Sodium), to which 100 mM NaCl was also added, resulting in a final concentration of the umami compound in the test sample with 0.1% ethanol. To create the control sample, 100 mM NaCl was added to the low sodium chicken broth, and it was balanced with 0.1% ethanol. All samples were served at 55° C. A 2-Alternative Forced Choice test was used, where panelists received two three-digit blind-coded samples, one control and one test sample, in randomized, counter-balanced order. Panelists tasted samples, rinsing with water between samples, and indicated which of the two samples was […]. The results were analyzed using a binomial distribution with alpha=0.1.

[2] = tested on: trained panelists (saltiness perception); assay: 2-Alternative Forced Choice human taste test, saltiness in low sodium chicken broth; settings: for Sample selected as saltier by panelists (Total): 55° C.; for saltiness of test sample versus control sample: p<0.1
Protocol: Samples of low sodium chicken broth were prepared and compared using human taste tests. Control samples contained low sodium chicken broth alone. Test samples contained the same low sodium chicken broth to which a specific umami compound was added at a specified concentration. To prepare the test sample, a concentrated stock solution of an umami compound was prepared in ethanol. […] To create the control sample, the chicken broth was balanced with 0.1% ethanol. All samples were served at 55° C. Trained panelists were used to complete the test with three replicates (subject number reported in each table). A 2-Alternative Forced Choice test was used, where panelists received two three-digit blind-coded samples, one control and one test sample, in randomized, counter-balanced order. Panelists tasted samples, rinsing with water between samples, and indicated which of the two samples was […]. The results were analyzed using a binomial distribution with alpha=0.1.

[3] = tested on: trained panelists (saltiness perception); assay: Difference from Reference scaling human taste test, saltiness in low sodium chicken broth
Protocol: Samples of low sodium chicken broth were prepared and compared using human taste tests. The reference samples contained low sodium chicken broth alone. The test samples contained the same low sodium chicken broth to which a specific umami compound was added. To prepare the test samples, a concentrated stock solution of an umami compound was prepared in ethanol. The stock solution was added to a commercially available no-MSG added, low sodium chicken broth (Pacific Organic Free Range Chicken Broth Low Sodium), resulting in a final concentration of the umami compound in the test sample with 0.1% ethanol. To create the reference sample, the low sodium chicken broth was balanced with 0.1% ethanol. All samples were served at 55° C. Trained panelists were used to complete the test with two replicates (subject number reported in each table). A Difference from Reference scaling test was used. Panelists received pairs of samples, consisting of the reference sample and a three-digit blind coded sample, which was either the reference sample again (i.e., a negative control), or the test sample containing the compound of interest. Panelists first tasted the reference sample, then rinsed with water and tasted the blind-coded sample. Panelists were asked to score the test sample for differences in saltiness as compared to the reference sample. […] The test also included measurement of other attributes rated on separate scales (e.g., umami intensity, bitterness, and chicken flavor) to ensure responses for saltiness focused solely on that attribute. The order in which panelists received sample pairs containing either the reference or the test sample as the three-digit blind coded sample was randomized and counterbalanced. The results were analyzed using a two-tailed Student's t-test, with alpha=0.1.

For `CCCC(CCC)NC(=O)c1ccc2c(c1)OCO2` [Formula (1a)], which “Sample selected as saltier by panelists (Total)” value (shortened to “Sample selected as saltier”) ([1]; 2 ppm in chicken broth (100 mM NaCl added), n = 48 (16 panelists × 3 replicates)) is on record?
Its value is 31.

What about the “saltiness of test sample versus control sample” value ([1]; 2 ppm in chicken broth (100 mM NaCl added)) of the same molecule?
The value was “significantly saltier”.

What about the “Sample selected as saltier” value ([2]; 2 ppm in low sodium chicken broth, 0.05% ethanol, n = 48 (16 panelists × 3 replicates)) of the same molecule?
The value was 35.

And the “saltiness of test sample versus control sample” value ([2]; 2 ppm in low sodium chicken broth)?
Its value is “significantly saltier”.

`COc1cccc(-c2n[nH]c(SCc3ccccn3)n2)c1OC` [Formula (1b)] was tested. Which “Average Saltiness Score of Test Sample as compared to Reference Sample” value ([3]; 5 ppm in low sodium chicken broth, 11-point scale −5 to +5, n = 24 (12 panelists × 2 replicates)) did it give?
Its value is 0.7.

And the “saltiness of test sample versus reference sample” value ([3]; 5 ppm in low sodium chicken broth, p<0.1)?
Its value is “significantly saltier”.

What about the “Sample selected as saltier” value ([2]; 5 ppm in low sodium chicken broth, 0.1% ethanol, n = 48 (16 panelists × 3 replicates)) of the same molecule?
The value was 33.

What about the “saltiness of test sample versus control sample” value ([2]; 5 ppm in low sodium chicken broth) of the same molecule?
Its value is “significantly saltier”.

Which results are given for `COc1cc(C)ccc1CNC(=O)C(=O)NCCc1ccccn1` [Formula (1c)]?
Sample selected as saltier by panelists (Total) ([1]; 1 ppm in chicken broth (100 mM NaCl added), n = 51 (17 panelists × 3 replicates)): 33; saltiness of test sample versus control sample ([1]; 1 ppm in chicken broth (100 mM NaCl added)): significantly saltier; Sample selected as saltier by panelists (Total) ([2]; 1 ppm in low sodium chicken broth, 0.1% ethanol, n = 48 (16 panelists × 3 replicates)): 36; saltiness of test sample versus control sample ([2]; 1 ppm in low sodium chicken broth): significantly saltier

With `COc1cccc(CNC(=O)C(=O)NCCc2ccccn2)c1OC` [Formula (1d)] as the molecule, how does the “Average Saltiness Score of Test Sample as compared to Reference Sample” value ([3]; 8 ppm in low sodium chicken broth, 11-point scale −5 to +5, n = 30 (15 panelists × 2 replicates)) read?
The value was 0.8.

And the “saltiness of test sample versus reference sample” value ([3]; 8 ppm in low sodium chicken broth, p<0.1)?
The value was “significantly saltier”.

And the “Sample selected as saltier” value ([1]; 8 ppm in chicken broth (100 mM NaCl added), n = 48 (16 panelists × 3 replicates))?
The value was 31.

What about the “saltiness of test sample versus control sample” value ([1]; 8 ppm in chicken broth (100 mM NaCl added)) of the same molecule?
The value was “significantly saltier”.

And the “Sample selected as saltier” value ([2]; 8 ppm in low sodium chicken broth, 0.1% ethanol, n = 51 (17 panelists × 3 replicates))?
Its value is 37.

What about the “saltiness of test sample versus control sample” value ([2]; 8 ppm in low sodium chicken broth) of the same molecule?
The value was “significantly saltier”.

Which results are given for `COC[C@@H](CC(C)C)NC(=O)c1ccc(C)c(C)c1` [Formula (1e)]?
Average Saltiness Score of Test Sample as compared to Reference Sample ([3]; 2 ppm in low sodium chicken broth, 11-point scale −5 to +5, n = 30 (15 panelists × 2 replicates)): 0.5; saltiness of test sample versus reference sample ([3]; 2 ppm in low sodium chicken broth, p<0.1): significantly saltier; Sample selected as saltier by panelists (Total) ([2]; 2 ppm in low sodium chicken broth, 0.1% ethanol, n = 51 (17 panelists × 3 replicates)): 32; saltiness of test sample versus control sample ([2]; 2 ppm in low sodium chicken broth, 0.1% ethanol): significantly saltier

For `COc1cc(C)ccc1CNC(=O)C(=O)NCCc1ccc(C)cn1` [Formula (1f)], which “Average Saltiness Score of Test Sample as compared to Reference Sample” value ([3]; 1 ppm in low sodium chicken broth, 11-point scale −5 to +5, n = 26 (13 panelists × 2 replicates)) is on record?
The value was 1.0.

What about the “saltiness of test sample versus reference sample” value ([3]; 1 ppm in low sodium chicken broth, n = 26, p<0.1) of the same molecule?
The value was “significantly saltier”.

And the “Sample selected as saltier” value ([1]; 2 ppm Formula (1f) in chicken broth (100 mM NaCl added), n = 48 (16 panelists × 3 replicates))?
The value was 32.

And the “saltiness of test sample versus control sample” value ([1]; 2 ppm Formula (1f) in chicken broth (100 mM NaCl added))?
The value was “significantly saltier”.

Which “Average Saltiness Score of Test Sample as compared to Reference Sample” value ([3]; 1 ppm in low sodium chicken broth, 11-point scale −5 to +5, n = 30 (15 panelists × 2 replicates)) does the source give for `COc1ccc(CNC(=O)C(=O)NCCc2ccccn2)c(OC)c1` [Formula (1g)] here?
Its value is 0.5.

And the “saltiness of test sample versus reference sample” value ([3]; 1 ppm in low sodium chicken broth, n = 30, p<0.1)?
The value was “significantly saltier”.

Source: patent US20170042196A1, “USE OF UMAMI COMPOUNDS TO ENHANCE SALTINESS” (Senomyx, Inc., priority 2015, published 2017)
